Where two headings read alike, the source gives them in different places.
Assays:
[1] = biological target: T1, recombinant human NK3 receptor (Homo sapiens, UniProt P29371); assay: [3H]SR142801 competition binding assay
T1 construct: expressed in transfected cells; host or cells: HEK293 cells, transient expression; membrane preparation
T1 sequence (P29371 1-465): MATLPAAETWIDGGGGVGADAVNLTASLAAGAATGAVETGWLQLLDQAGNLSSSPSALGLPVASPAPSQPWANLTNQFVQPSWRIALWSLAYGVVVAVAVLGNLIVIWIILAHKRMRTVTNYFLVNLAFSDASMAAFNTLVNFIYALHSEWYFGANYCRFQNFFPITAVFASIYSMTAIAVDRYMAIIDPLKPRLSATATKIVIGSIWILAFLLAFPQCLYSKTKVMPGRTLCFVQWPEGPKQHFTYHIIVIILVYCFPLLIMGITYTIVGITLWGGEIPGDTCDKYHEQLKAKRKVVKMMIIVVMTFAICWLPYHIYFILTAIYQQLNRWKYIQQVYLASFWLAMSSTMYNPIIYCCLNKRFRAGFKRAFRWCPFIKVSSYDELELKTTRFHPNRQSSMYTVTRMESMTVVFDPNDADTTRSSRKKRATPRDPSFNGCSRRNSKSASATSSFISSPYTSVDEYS
In short: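 Ki derived by Cheng-Prusoff from Hill-fitted IC50 curves, duplicates, 10 μM SB222200 defining nonspecific binding. Radioligand used at KD concentration against compound at 0.0003-10 μM; transiently transfected HEK293 membranes, 5 μg/well, 75 min room temperature, Tris-HCl/MnCl2/phosphoramidon/BSA pH 7.4. Filter-bound counts read by scintillation.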

[2] = system: symptoms of schizophrenia; details: phase II trial, cited from earlier work
[3] = [3H]SR142801, membranes of HEK293 cells transiently expressing recombinant human NK3 receptor, read-out: hNK3 Ki
[4] = representative compounds, [3H]SR142801, HEK293 membranes, human NK3 receptor, read-out: Ki NK3 h

CC[C@H](NC(=O)C(C)(CCN1CCC(N(CCOC)C(C)=O)CC1)c1ccc(Cl)c(Cl)c1)c1ccccc1 (stereo partly drawn) [Example 152, 4-{4-[Acetyl-(2-methoxy-ethyl)-amino]-piperidin-1-yl}-2-(3,4-dichloro-phenyl)-2-methyl-N-((S)-1-phenyl-propyl)-butyramide]
Ki [1, 3]: 1.1 nM | Ki [1, 4]: 1.1 nM

CC[C@@H](NC(=O)C(C)(CCN1CCC(N(CCOC)C(C)=O)CC1)c1ccc(Cl)c(Cl)c1)c1ccccc1 (stereo partly drawn) [Example 153, 4-{4-[Acetyl-(2-methoxy-ethyl)-amino]-piperidin-1-yl}-2-(3,4-dichloro-phenyl)-2-methyl-N-((R)-1-phenyl-propyl)-butyramide]
Ki [1, 3]: 60.9 nM

CC(=O)NC1CCN(CCC(C)(C(=O)N[C@@H](CO)c2ccc(F)cc2)c2ccc(Cl)c(Cl)c2)CC1 (stereo partly drawn) [Example 160, 4-(4-Acetylamino-piperidin-1-yl)-2-(3,4-dichloro-phenyl)-N-[(R)-1-(4-fluoro-phenyl)-2-hydroxy-ethyl]-2-methyl-butyramide]
Ki [1, 3]: 200 nM

CC[C@H](NC(=O)C(C)(CCN1CCC(NC(C)=O)CC1)c1ccc(Cl)c(Cl)c1)c1ccccc1 (stereo partly drawn) [Example 161, 4-(4-Acetylamino-piperidin-1-yl)-2-(3,4-dichloro-phenyl)-2-methyl-N-((S)-1-phenyl-propyl)-butyramide]
Ki [1, 3]: 44.2 nM

CCCN(C(C)=O)C1CCN(CCC(C)(C(=O)N[C@@H](CC)c2ccccc2)c2ccc(Cl)c(Cl)c2)CC1 (stereo partly drawn) [Example 164, 4-[4-(Acetyl-propyl-amino)-piperidin-1-yl]-2-(3,4-dichloro-phenyl)-2-methyl-N-((S)-1-phenyl-propyl)-butyramide]
Ki [1, 3]: 0.8 nM | Ki [1, 4]: 0.8 nM

CCCN(C(C)=O)C1CCN(CCC(C)(C(=O)N[C@H](CC)c2ccccc2)c2ccc(Cl)c(Cl)c2)CC1 (stereo partly drawn) [Example 165, 4-[4-(Acetyl-propyl-amino)-piperidin-1-yl]-2-(3,4-dichloro-phenyl)-2-methyl-N-((R)-1-phenyl-propyl)-butyramide]
Ki [1, 3]: 14.5 nM

CC[C@H](NC(=O)C(C)(CCN1CCC(N(CC)C(C)=O)CC1)c1ccc(Cl)c(Cl)c1)c1ccccc1 (stereo partly drawn) [Example 168, 4-[4-(Acetyl-ethyl-amino)-piperidin-1-yl]-2-(3,4-dichloro-phenyl)-2-methyl-N-((S)-1-phenyl-propyl)-butyramide]
Ki [1, 3]: 3 nM | Ki [1, 4]: 3 nM

CC[C@@H](NC(=O)C(C)(CCN1CCC(N(CC)C(C)=O)CC1)c1ccc(Cl)c(Cl)c1)c1ccccc1 (stereo partly drawn) [Example 169, 4-[4-(Acetyl-ethyl-amino)-piperidin-1-yl]-2-(3,4-dichloro-phenyl)-2-methyl-N-((R)-1-phenyl-propyl)-butyramide]
Ki [1, 3]: 57.6 nM

CC(=O)N(C)C1(c2ccccc2)CCN(CCC[C@]2(c3ccc(Cl)c(Cl)c3)CCCN(C(=O)c3ccccc3)C2)CC1 [SR 142,801, Osanetant]
activity on positive symptoms of schizophrenia ([2]; altered behaviour, delusion, hallucinations, extreme emotions, excited motor activity, incoherent speech): active on positive symptoms of schizophrenia | activity on negative symptoms of schizophrenia ([2]; depression, anhedonia, social isolation, memory and attention deficits): inactive in the treatment of negative symptoms

From patent US20110021565A1, “PIPERIDINE DERIVATIVES AS NK3 ANTAGONISTS” (priority 2007, published 2011)
